Assay results: patent publication US20260285872A1, “COMPOUNDS AND METHODS FOR DEGRADING GSPT1” (priority 2023, published 2026)
pIC50: −log10 of the molar value.

tested on: NCI-H1155 cells; experiment: NSCLC cell viability, CellTiter-Glo, NCI-H1155 cells; assay type: cell-based; settings: Homo sapiens, NCI-H1155, 72 h, read-out: Cell viability classification (NCI-H1155)

SMILES | pIC50
O=C1CCC(N2Cc3cc(C(=O)N4Cc5c(F)ccc(OC(F)(F)F)c5C4)ccc3C2=O)C(=O)N1 (stereo not shown) [Example 185, 3-(5-(4-fluoro-7-(trifluoromethoxy)isoindoline-2-carbonyl)-1-oxoisoindolin-2-yl)piperidine-2,6-dione] | 6.00 to 7.00

same assay, conditions: Homo sapiens; NCI-H1155 cells, CellTiter-Glo, 72 hours of treatment; read-out: Cell viability classification (NCI-H1155)

SMILES | pIC50
O=C1CCC(N2Cc3cc(C(=O)N4CC5(CC5)c5ccc(F)cc54)ccc3C2=O)C(=O)N1 (stereo not shown) [Example 105, 3-(5-(6′-fluorospiro[cyclopropane-1,3′-indoline]-1′-carbonyl)-1-oxoisoindolin-2-yl)piperidine-2,6-dione] | > 8.00
C[C@H]1CN(C(=O)c2ccc3c(c2)CN(C2CCC(=O)NC2=O)C3=O)c2cc(F)ccc21 (stereo partly drawn) [Example 132, 3-(5-((R)-6-fluoro-3-methylindoline-1-carbonyl)-1-oxoisoindolin-2-yl)piperidine-2,6-dione] | > 8.00
Cc1c(N2CCC(=O)NC2=O)ccc2ccc(C(=O)N3CCc4ccc(F)cc43)cc12 [Example 134, 1-(7-(6-fluoroindoline-1-carbonyl)-1-methylnaphthalen-2-yl)dihydropyrimidine-2,4(1H,3H)-dione] | 7.00 to 8.00
C[C@H]1c2cccc(F)c2CN1C(=O)c1ccc2c(c1)CN(C1CCC(=O)NC1=O)C2=O (stereo partly drawn) [Example 141, 3-(5-((S)-4-fluoro-1-methylisoindoline-2-carbonyl)-1-oxoisoindolin-2-yl)piperidine-2,6-dione] | 6.00 to 7.00
O=C1CCN(c2ccc3cc(COC(=O)Nc4cc(OC(F)(F)F)ccc4F)ccc3c2)C(=O)N1 [Example 143, (6-(2,4-dioxotetrahydropyrimidin-1(2H)-yl)naphthalen-2-yl)methyl(2-fluoro-5-(trifluoromethoxy)phenyl)carbamate] | 6.00 to 7.00
O=C1CCC(c2nc3ccc(C(=O)N4CCc5ccccc5C4)cc3o2)C(=O)N1 (stereo not shown) [Example 146, 3-(6-(1,2,3,4-tetrahydroisoquinoline-2-carbonyl)benzo[d]oxazol-2-yl)piperidine-2,6-dione] | 6.00 to 7.00
Cc1ccc2c(c1F)CN(C(=O)c1ccc3c(c1)CN(C1CCC(=O)NC1=O)C3=O)C2 (stereo not shown) [Example 149, 3-(5-(4-fluoro-5-methylisoindoline-2-carbonyl)-1-oxoisoindolin-2-yl)piperidine-2,6-dione] | 7.00 to 8.00
O=C1CCC(N2Cc3cc(C(=O)N4Cc5cccc(OC(F)(F)F)c5C4)ccc3C2=O)C(=O)N1 (stereo not shown) [Example 151, 3-(1-oxo-5-(4-(trifluoromethoxy)isoindoline-2-carbonyl)isoindolin-2-yl)piperidine-2,6-dione] | 7.00 to 8.00
O=C1CCC(N2Cc3cc(C(=O)N4Cc5cc(F)cc(Cl)c5C4)ccc3C2=O)C(=O)N1 (stereo not shown) [Example 152, 3-(5-(4-chloro-6-fluoroisoindoline-2-carbonyl)-1-oxoisoindolin-2-yl)piperidine-2,6-dione] | 7.00 to 8.00
O=C1CCC(c2nc3ccc(C(=O)N4Cc5cccc(OC(F)(F)F)c5C4)cc3o2)C(=O)N1 (stereo not shown) [Example 153, 3-(6-(4-(trifluoromethoxy)isoindoline-2-carbonyl)benzo[d]oxazol-2-yl)piperidine-2,6-dione] | < 6.00
O=C1CCC(N2Cc3cc(C(=O)N4CC5(CNC5)c5ccc(F)cc54)ccc3C2=O)C(=O)N1 (stereo not shown) [Example 154, 3-(5-(6′-fluorospiro[azetidine-3,3′-indoline]-1′-carbonyl)-1-oxoisoindolin-2-yl)piperidine-2,6-dione] | < 6.00
N#Cc1cc(F)c2c(c1)CN(C(=O)c1ccc3c(c1)CN(C1CCC(=O)NC1=O)C3=O)C2 (stereo not shown) [Example 156, 2-(2-(2,6-dioxopiperidin-3-yl)-1-oxoisoindoline-5-carbonyl)-7-fluoroisoindoline-5-carbonitrile] | 7.00 to 8.00
C[C@@H]1c2c(F)cccc2CN1C(=O)c1ccc2nc(C3CCC(=O)NC3=O)oc2c1 (stereo partly drawn) [Example 159, 3-(6-((R)-7-fluoro-1-methylisoindoline-2-carbonyl)benzo[d]oxazol-2-yl)piperidine-2,6-dione] | < 6.00
COc1cccc2c1CN(C(=O)c1ccc3nc(C4CCC(=O)NC4=O)oc3c1)C2 (stereo not shown) [Example 162, 3-(6-(4-methoxyisoindoline-2-carbonyl)benzo[d]oxazol-2-yl)piperidine-2,6-dione] | < 6.00
O=C1CCC(N2Cc3cc(C(=O)N4CC5(CCC(F)(F)C5)C4)ccc3C2=O)C(=O)N1 (stereo not shown) [Example 163, 3-(5-(6,6-difluoro-2-azaspiro[3.4]octane-2-carbonyl)-1-oxoisoindolin-2-yl)piperidine-2,6-dione] | 6.00 to 7.00
O=C1CCC(N2Cc3cc(C(=O)N4CC5(C4)CC(F)(c4ccc(F)cc4)C5)ccc3C2=O)C(=O)N1 (stereo not shown) [Example 168, 3-(5-(6-fluoro-6-(4-fluorophenyl)-2-azaspiro[3.3]heptane-2-carbonyl)-1-oxoisoindolin-2-yl)piperidine-2,6-dione] | 6.00 to 7.00
O=C1CCC(c2nc3ccc(C(=O)N4CCc5cc(Cl)ccc5C4)cc3o2)C(=O)N1 (stereo not shown) [Example 171, 3-(6-(6-chloro-1,2,3,4-tetrahydroisoquinoline-2-carbonyl)benzo[d]oxazol-2-yl)piperidine-2,6-dione] | 6.00 to 7.00
N#Cc1cccc2c1CN(C(=O)c1ccc3nc(C4CCC(=O)NC4=O)oc3c1)C2 (stereo not shown) [Example 173, 2-(2-(2,6-dioxopiperidin-3-yl)benzo[d]oxazole-6-carbonyl)isoindoline-4-carbonitrile] | 6.00 to 7.00
O=C1CCC(c2nc3ccc(C(=O)N4CCc5c(F)cc(F)cc54)cc3o2)C(=O)N1 (stereo not shown) [Example 175, 3-(6-(4,6-difluoroindoline-1-carbonyl)benzo[d]oxazol-2-yl)piperidine-2,6-dione] | 6.00 to 7.00
O=C1CCC(c2nc3ccc(C(=O)N4Cc5c(F)ccc(F)c5C4)cc3o2)C(=O)N1 (stereo not shown) [Example 177, 3-(6-(4,7-difluoroisoindoline-2-carbonyl)benzo[d]oxazol-2-yl)piperidine-2,6-dione] | 6.00 to 7.00
O=C1CCC(N2Cc3cc(C(=O)N4CC5(CC(C(F)(F)F)C5)C4)c(F)cc3C2=O)C(=O)N1 (stereo not shown) [Example 183, 3-(6-fluoro-1-oxo-5-(6-(trifluoromethyl)-2-azaspiro[3.3]heptane-2-carbonyl)isoindolin-2-yl)piperidine-2,6-dione] | 7.00 to 8.00
O=C1CCC(N2Cc3cc(C(=O)N4CC5(CCOCC5)C4)ccc3C2=O)C(=O)N1 (stereo not shown) [Example 186, 3-(1-oxo-5-(7-oxa-2-azaspiro[3.5]nonane-2-carbonyl)isoindolin-2-yl)piperidine-2,6-dione] | < 6.00

Continued, values first:

pIC50 | SMILES
7.00 to 8.00 | C[C@@H]1c2c(F)cccc2CN1C(=O)c1ccc2c(c1)CN(C1CCC(=O)NC1=O)C2=O (stereo partly drawn) [Example 139, 3-(5-((R)-7-fluoro-1-methylisoindoline-2-carbonyl)-1-oxoisoindolin-2-yl)piperidine-2,6-dione]
< 6.00 | C[C@H]1c2c(F)cccc2CN1C(=O)c1ccc2c(c1)CN(C1CCC(=O)NC1=O)C2=O (stereo partly drawn) [Example 140, 3-(5-((S)-7-fluoro-1-methylisoindoline-2-carbonyl)-1-oxoisoindolin-2-yl)piperidine-2,6-dione]
< 6.00 | C[C@@H]1c2cccc(F)c2CN1C(=O)c1ccc2c(c1)CN(C1CCC(=O)NC1=O)C2=O (stereo partly drawn) [Example 142, 3-(5-((R)-4-fluoro-1-methylisoindoline-2-carbonyl)-1-oxoisoindolin-2-yl)piperidine-2,6-dione]
7.00 to 8.00 | O=C1CCC(N2Cc3cc(C(=O)N4Cc5ccc(F)c(Cl)c5C4)ccc3C2=O)C(=O)N1 (stereo not shown) [Example 144, 3-(5-(4-chloro-5-fluoroisoindoline-2-carbonyl)-1-oxoisoindolin-2-yl)piperidine-2,6-dione]
7.00 to 8.00 | O=C1CCC(N2Cc3cc(C(=O)N4Cc5cc(Cl)cc(F)c5C4)ccc3C2=O)C(=O)N1 (stereo not shown) [Example 148, 3-(5-(6-chloro-4-fluoroisoindoline-2-carbonyl)-1-oxoisoindolin-2-yl)piperidine-2,6-dione]
6.00 to 7.00 | N#Cc1ccc2c(c1F)CN(C(=O)c1ccc3c(c1)CN(C1CCC(=O)NC1=O)C3=O)C2 (stereo not shown) [Example 150, 2-(2-(2,6-dioxopiperidin-3-yl)-1-oxoisoindoline-5-carbonyl)-4-fluoroisoindoline-5-carbonitrile]
> 8.00 | Cc1cc(F)c2c(c1)CN(C(=O)c1ccc3c(c1)CN(C1CCC(=O)NC1=O)C3=O)C2 (stereo not shown) [Example 155, 3-(5-(4-fluoro-6-methylisoindoline-2-carbonyl)-1-oxoisoindolin-2-yl)piperidine-2,6-dione]
6.00 to 7.00 | O=C1CCC(N2Cc3cc(C(=O)N4CC5(CCC(F)(F)CC5)C4)ccc3C2=O)C(=O)N1 (stereo not shown) [Example 157, 3-(5-(7,7-difluoro-2-azaspiro[3.5]nonane-2-carbonyl)-1-oxoisoindolin-2-yl)piperidine-2,6-dione]
6.00 to 7.00 | C[C@H]1c2c(F)cccc2CN1C(=O)c1ccc2nc(C3CCC(=O)NC3=O)oc2c1 (stereo partly drawn) [Example 160, 3-(6-((S)-7-fluoro-1-methylisoindoline-2-carbonyl)benzo[d]oxazol-2-yl)piperidine-2,6-dione]
6.00 to 7.00 | O=C1CCC(N2Cc3cc(C(=O)N4CC(F)(c5ccc(F)cc5)C4)ccc3C2=O)C(=O)N1 (stereo not shown) [Example 170, 3-(5-(3-fluoro-3-(4-fluorophenyl)azetidine-1-carbonyl)-1-oxoisoindolin-2-yl)piperidine-2,6-dione]
7.00 to 8.00 | O=C1CCC(N2Cc3cc(C(=O)N4Cc5ccc(Cl)c(F)c5C4)ccc3C2=O)C(=O)N1 (stereo not shown) [Example 172, 3-(5-(5-chloro-4-fluoroisoindoline-2-carbonyl)-1-oxoisoindolin-2-yl)piperidine-2,6-dione]
6.00 to 7.00 | O=C1CCC(c2nc3ccc(C(=O)N4CCc5cccc(Cl)c5C4)cc3o2)C(=O)N1 (stereo not shown) [Example 179, 3-(6-(8-chloro-1,2,3,4-tetrahydroisoquinoline-2-carbonyl)benzo[d]oxazol-2-yl)piperidine-2,6-dione]
< 6.00 | O=C1CCC(c2nc3ccc(C(=O)N4CCc5ccc(Cl)cc5C4)cc3o2)C(=O)N1 (stereo not shown) [Example 180, 3-(6-(7-chloro-1,2,3,4-tetrahydroisoquinoline-2-carbonyl)benzo[d]oxazol-2-yl)piperidine-2,6-dione]
< 6.00 | O=C1CCC(c2nc3ccc(C(=O)N4CCc5c(Cl)cccc5C4)cc3o2)C(=O)N1 (stereo not shown) [Example 181, 3-(6-(5-chloro-1,2,3,4-tetrahydroisoquinoline-2-carbonyl)benzo[d]oxazol-2-yl)piperidine-2,6-dione]
